# Data published in EP4789715A2, “METHODS FOR TREATING NEOINTIMAL HYPERPLASIA USING F11R/JAM-A INHIBITORS” (The Research Foundation for The State University of New York, priority 2019, dated 2026).
# Non-standard residues stand in square brackets, D forms with d. Residues, ends and D or L forms follow the SMILES beside them.
# Tested on: uremic C57BL/6 mice
# Assay: carotid artery ligation (mid-focal LCA stenosis) model of neointimal hyperplasia in 5/6-nephrectomized uremic mice
# Format: in vivo
# Conditions: for mean Intima Index (ratio of intima area/intima + media area): intraperitoneal injections for 21 days, n=7
# Experimental: Carotid artery ligation was performed on 14 uremic C57BL/6 mice that underwent 5/6 nephrectomy. One week after nephrectomy, partial ligation of the left carotid artery (LCA) was performed on each mouse. Focal LCA stenosis was created by placing 9-0 nylon suture at 1mm proximal to the carotid bifurcation (mid-focal stenosis) around the artery using a 35-gauge blunt needle (World precision Instruments, Inc., Sarasota, FL). Then the needle mandrel was gently removed to restore blood flow.
# Mice were fed a regular mouse diet and divided into 2 groups of 7 mice each; the experimental group received Peptide 4D while the Control group received saline injections by intraperitoneal route for 21 days, as this was the time shown in earlier studies to correlate with development of neointimal hyperplasia following partial ligation of the carotid artery.
# The mice were then euthanized on day 21 and both LCA and right carotid artery (RCA) were excised for analysis. Specimens were embedded in paraffin. Serial sections (6 µm thick) were collected at 200-µm intervals of the LCA from mid-focal stenosis as well as from the RCA serving as lesion control. Data were analyzed qualitatively and quantitatively using Image J software. The two groups were compared for differences in mean Intima Area and Intima Index, defined as the ratio of intima area divided by intima plus media area.
structure (smiles),measurement,setting,value
"CC(C)[C@H](NC(=O)[C@H](CO)NC(=O)[C@H](N)CCCCN)C(=O)N[C@H](C(=O)N[C@H](CCCNC(=N)N)C(=O)N[C@@H](CCC(=O)O)C(=O)N[C@@H](CC(=O)O)C(=O)N[C@H](C(=O)NCC(=O)N[C@H](C(=O)N[C@@H](Cc1ccc(O)cc1)C(=O)N[C@H](C(=O)N[C@@H](CS)C(N)=O)[C@@H](C)O)[C@@H](C)O)[C@@H](C)O)[C@@H](C)O [Peptide 4D, NH2-(dK)-SVT-(dR)-EDTGTYTC-CONH2] (H-[dK]SVT[dR]EDTGTYTC-NH2)",experimental mice LCA with severe neointimal hyperplasia,"7 treated mice, day 21, all LCA in control mice developed severe neointimal hyperplasia, two with complete luminal occlusion",only one had severe neointimal hyperplasia
same,mean Intima Index (ratio of intima area/intima + media area),"average from 10 LCA locations, FIG. 6, control (0.27 + 0.13), p = 0.0079",significantly less mean intima/intima + media ratio
same,mean Intima Index (ratio of intima area/intima + media area),"average from 10 LCA locations, FIG. 6, control (0.27 + 0.13), p = 0.0079, listed as peptide 4D",0.089 + 0.081
same,arterial lumen (H&E-stained cross sections of the carotid artery),"different distances from the point of ligation, compared to occluded lumens in the controls, FIGs. 1A-1B",arterial lumen is preserved
same,mean Intima Index (ratio of intima area/intima + media area),"from 1 LCA location with biggest focal stenosis, FIG. 7, control (0.47 + 0.15), p = 0.039",0.31 + 0.14
same,intima area relative to distance from the ligation point,"mid focal stenosis morphometry of LCA, 10 locations, treated versus control untreated uremic mice, FIG. 4",significantly smaller
same,neointimal hyperplasia,"uremic C57BL/6 mice, carotid ligation model, 21 days of administration, overall conclusion in words",significantly inhibits neointimal hyperplasia
